# Data: patent US11253524B2 (Gilead Sciences, Inc., priority 2018, dated 2022)
# Legend:
# [1] = target: T1, human hepatic microsomal UGT1A1 (Homo sapiens, UniProt P22309); test: biochemical; settings: for Stimulation of enzyme activity, peak increase: at 200 μM
# T1 sequence (P22309 26-533): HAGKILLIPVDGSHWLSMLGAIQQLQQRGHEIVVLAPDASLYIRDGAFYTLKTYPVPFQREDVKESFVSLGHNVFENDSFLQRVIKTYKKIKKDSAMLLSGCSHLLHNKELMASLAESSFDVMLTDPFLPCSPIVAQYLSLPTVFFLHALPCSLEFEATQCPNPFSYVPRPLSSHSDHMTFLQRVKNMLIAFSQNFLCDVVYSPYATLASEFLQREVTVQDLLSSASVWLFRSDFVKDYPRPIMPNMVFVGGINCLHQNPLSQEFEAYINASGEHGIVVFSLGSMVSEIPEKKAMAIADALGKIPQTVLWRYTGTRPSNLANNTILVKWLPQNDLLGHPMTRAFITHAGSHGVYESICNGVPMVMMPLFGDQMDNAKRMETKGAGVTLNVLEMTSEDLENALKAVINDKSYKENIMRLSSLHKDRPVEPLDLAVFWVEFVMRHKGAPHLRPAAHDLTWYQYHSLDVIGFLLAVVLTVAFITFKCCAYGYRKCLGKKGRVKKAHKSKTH
# Description: The conditions for the assay were determined to be linear with respect to microsomal protein concentration and incubation time. […] Microsomal UGT1A1 activity was determined in duplicate. […] Diluted microsomal fraction was incubated on ice for 15 minutes with alamethicin, magnesium chloride and SACLAC. Substrate and inhibitor were then added and the mixture warmed to 37° C. for 0.5 minute. The reaction was initiated by the addition of UDP glucuronic acid in potassium phosphate buffer. The incubation continued at 37° C. with shaking and no light exposure for 2 minutes. Reactions were terminated by addition of one volume of 200 mM ascorbic acid in methanol, containing 200 nM 2-(N-(2-ethylphenyl)methylsulfonamido)-N-(2-(pyridin-2-ylthio)ethyl)acetamide as the internal standard.
# A Shimadzu UFLC XR UPLC system was used for analysis. The column used was a Thermo-Hypersil Gold 1.9 μm C18 column (30×2.1 mm) held at 60° C. Mobile phases were; A: water containing 0.1% (v/v) formic acid, and B: acetonitrile containing 0.1% (v/v) formic acid, pumped at 0.7 mL/minute. Elution was achieved by a series of linear gradients over 2 minutes. The mass spectrometer was an Applied Biosciences SCIEX QTRAP 5500 triple quadrupole mass spectrometer with an electrospray interface operating in positive ion mode. Quantification was by metabolite/internal standard peak area ratio (PAR).
# MS/MS transitions ([M+H]+) of m/z 761.2/475.1 and 937.2/475.1 for the monoglucuronide and diglucuronide, respectively. The PAR values for the two monoglucuronides were combined for quantification.
# Reaction velocities were calculated from the rates of formation of the metabolites and were compared to those seen with the vehicle control (100% activity). IC50 values were calculated by non-linear regression using GraphPad Prism 7.03 and a sigmoidal three parameter inhibition model. […] During the testing period the inhibitory potency of atazanavir was determined four times, with each concentration tested in duplicate in each determination. The data from all runs were pooled and a global fit performed to determine the lower plateau value. […] For atazanavir, the IC50 values from the four duplicate runs were combined to generate a summary geometric mean and multiplicative standard deviation for this positive control inhibitor.
# [2] = In vivo BIC metabolism, plasma profile after oral [14C]BIC, rat; design: species or system Wistar Han Rat; settings: rats, 0 to 168 hours post dose, ND = not detected
# Source text: Metabolic pathways included hydroxylation, oxidative defluorination, direct glucuronidation, and oxidation followed by phase II conjugation. In the monkey, BIC was metabolized through the oxidative pathways to a greater extent compared to rat and human.
Structure (SMILES),IC50 [1],"Stimulation of enzyme activity, peak increase [1]",% of Total Radioactivity in AUC Pooled Plasma [2]
"O=C(NCc1c(F)cc(F)cc1F)c1cn2c(c(O)c1=O)C(=O)N1[C@H]3CC[C@H](C3)O[C@@H]1C2 [BIC, bictegravir, reference compound]",> 300 µM,76%,76.5%
O=C(NCc1c(F)cc(F)cc1F)c1cn2c(c(O[C@@H]3O[C@H](C(=O)O)[C@@H](O)[C@H](O)[C@H]3O)c1=O)C(=O)N1[C@H]3CC[C@H](C3)O[C@@H]1C2 [Metabolite M15],> 300 µM,21%,
O=C(NCc1c(F)cc(F)c(OS(=O)(=O)O)c1F)c1cn2c(c(O)c1=O)C(=O)N1C(C2)O[C@@H]2CC[C@H]1C2 (stereo partly drawn) [Metabolite M20],153 µM,,11.3%
O=C(NCc1c(F)cc(F)c(O)c1F)c1cn2c(c(O)c1=O)C(=O)N1[C@H]3CC[C@H](C3)O[C@@H]1C2 [Metabolite M23],256 µM,,2.36%
